Residues, ends and D or L forms follow the SMILES beside them.

The subject of the first data set is L-alanine amide hydrolase. Kind of data set: Production of L-alanyl-L-asparagine and L-alanyl-L-glutamine with purified enzyme. Type of data set: biochemical, Corynebacterium glutamicum strain ATCC 13286. The conditions noted are these: 50 μmol L-alanine amide hydrochloride + 150 μmol L-asparagine or L-glutamine, 0.08 unit enzyme, 1 ml, pH 9.0, 30° C., 10 hours. The source says: Hereinafter, the present invention will be explained in more detail by way of examples. However, the present invention should not be considered to be limited to these examples.
The L-alanine amide hydrolase uniformly purified in Example 2 was allowed to act on L-alanine amide hydrochloride and L-asparagine or L-alanine amide hydrochloride and L-glutamine to produce L-alanyl-L-asparagine or L-alanyl-L-glutamine. In the case of obtaining L-alanyl-L-asparagine, 200 μmol of Tris-HCl buffer (pH 9.0), 50 μmol or L-alanine amide hydrochloride, 150 μmol of L-asparagine and enzyme liquid containing 0.08 unit of L-alanine amide hydrolase were added and mixed to a final volume of 1 ml. In the case of obtaining L-alanyl-L-glutamine, the reactants were mixed under the same conditions as in the case of L-alanyl-L-asparagine with the exception of using 150 μmol of L-glutamine instead of 150 μmol of L-asparagine. Control experiments were established for the case of using one of the substrates or setting the lot in which enzyme was not added. The reaction was carried out at a reaction temperature of 30° C. for 10 hours, and the results of quantifying the target product are shown in Table 3.
`C[C@H](N)C(=O)N[C@@H](CC(N)=O)C(=O)O` [L-alanyl-L-asparagine] (H-Ala-Asn-OH): the Product concentration came to 8.4 mM.
For `C[C@H](N)C(=O)N[C@@H](CCC(N)=O)C(=O)O` [L-alanyl-L-glutamine] (H-Ala-Gln-OH), the Product concentration turned out to be 7.7 mM.

The next data set has as its system L-alanine amide hydrolase. As to the kind of experiment: Measurement of activity of L-alanine amide hydrolase (L-alanyl-L-glutamine formation, HPLC). The format is biochemical, Corynebacterium glutamicum strain ATCC 13286. The conditions noted are these: His-Tag purified enzyme. As for the experimental part: Measurement of L-alanine amide enzyme activity was carried out by incubating a reaction mixture containing 50 mM L-alanine amide, 150 mM L-glutamine, 100 mM Tris-HCl buffer (pH 9.0), 10 mM EDTA and enzyme solution at 30° C. for 60 minutes followed by stopping the reaction by adding aqueous phosphoric acid (pH 1.5) equal to four volumes of the reaction mixture. The amount of L-alanyl-L-glutamine was determined by HPLC. For the unit of enzyme activity, enzyme activity that produces 1 μmol of L-alanyl-L-glutamine in 1 minute under these conditions was defined as 1 unit (U).
The conditions of HPLC used for analysis were as indicated below.
Mobile phase: (aqueous phosphoric acid solution (pH 2.1)), 2.5 mM sodium-1-octanesulfonate/methanol=10/1
Column temperature: 40° C.
In the case of `C[C@H](N)C(=O)N[C@@H](CCC(N)=O)C(=O)O` [L-alanyl-L-glutamine] (H-Ala-Gln-OH), the “production yield of Ala-Gln relative to L-alanine amide” value is 7.2%.

In a further data set the test system is His-Tag L-alanine amide hydrolase. Kind of data set: Study of substrate specificity using His-Tag purified enzyme. Type of data set: biochemical, Corynebacterium glutamicum strain ATCC 13286. The conditions noted are these: 100 mM L-alanine amide, 150 mM test amino acid, pH 9.0, enzyme 0.0045 U/ml, 25° C., 3 hours.
For `C[C@H](N)C(=O)N[C@@H](C)C(=O)O` [L-alanyl-L-alanine] (H-Ala-Ala-OH), the “peptide synthesized from L-alanine amide and test amino acid” value (“peptide synthesized” for short) came to 10.11 mM.
For `C[C@H](N)C(=O)N[C@@H](CCCNC(=N)N)C(=O)O` [L-alanyl-L-arginine] (H-Ala-Arg-OH), the “peptide synthesized” value is 27.69 mM.
Consider `C[C@H](N)C(=O)N[C@@H](CCC(=O)O)C(=O)O` [L-alanyl-L-glutamate] (H-Ala-Glu-OH), for which the “peptide synthesized” value is 1.20 mM.
Turning to `C[C@H](N)C(=O)N[C@@H](Cc1c[nH]cn1)C(=O)O` [L-alanyl-L-histidine] (H-Ala-His-OH), the “peptide synthesized” value was determined as 12.52 mM.
On the same count and under the same terms, under `CC[C@H](C)[C@H](NC(=O)[C@H](C)N)C(=O)O` [L-alanyl-L-isoleucine] (H-Ala-Ile-OH) stands 14.11 mM; under `CC(C)C[C@H](NC(=O)[C@H](C)N)C(=O)O` [L-alanyl-L-leucine] (H-Ala-Leu-OH), 9.60 mM.
Still for that read-out and setting: under `C[C@H](N)C(=O)N[C@@H](CCCCN)C(=O)O` [L-alanyl-L-lysine] (H-Ala-Lys-OH) stands 18.83 mM.
Turning to `CSCC[C@H](NC(=O)[C@H](C)N)C(=O)O` [L-alanyl-L-methionine] (H-Ala-Met-OH), the “peptide synthesized” value is 14.49 mM.
Consider `C[C@H](N)C(=O)N[C@@H](Cc1ccccc1)C(=O)O` [L-alanyl-L-phenylalanine], for which the “peptide synthesized” value stood at 13.42 mM.
Turning to `C[C@H](N)C(=O)N1CCC[C@H]1C(=O)O` [L-alanyl-L-proline] (H-Ala-Pro-OH), the “peptide synthesized” value was 0.81 mM.
`C[C@H](N)C(=O)N[C@@H](CO)C(=O)O` [L-alanyl-L-serine] (H-Ala-Ser-OH): the “peptide synthesized” value came to 24.67 mM.
For the compound `C[C@H](N)C(=O)N[C@H](C(=O)O)[C@@H](C)O` [L-alanyl-L-threonine] (H-Ala-Thr-OH), the “peptide synthesized” value is on record as 20.76 mM.
On the same count and under the same terms, the same measure for `C[C@H](N)C(=O)N[C@@H](Cc1c[nH]c2ccccc12)C(=O)O` [L-alanyl-L-tryptophan] (H-Ala-Trp-OH): 10.09 mM; for `C[C@H](N)C(=O)N[C@@H](Cc1ccc(O)cc1)C(=O)O` [L-alanyl-L-tyrosine] (H-Ala-Tyr-OH): 1.52 mM.
Same read-out and setting: the same measure for `CC(C)[C@H](NC(=O)[C@H](C)N)C(=O)O` [L-alanyl-L-valine] (H-Ala-Val-OH): 9.72 mM.
Consider `C[C@H](N)C(=O)NCC(=O)O` [L-alanyl-glycine] (H-Ala-Gly-OH), for which the “peptide synthesized” value is on record as 7.54 mM.

The same data set, now with this note: 100 mM test amino acid amide, 150 mM L-glutamine, pH 9.0, enzyme 0.0045 U/ml, 25° C., 3 hours.
On to `NCC(=O)N[C@@H](CCC(N)=O)C(=O)O` [glycyl-L-glutamine] (H-Gly-Gln-OH), for which the “peptide produced from test amino acid amide and L-glutamine” value turned out to be 17.7 mM.
Same read-out and setting: the same measure for `NC(=O)CC[C@H](NC(=O)[C@@H](N)CC(=O)O)C(=O)O` [α-L-aspartyl-glutamine] (H-Asp-Gln-OH): 21.2 mM.

Test system in the next data set: not given
Experiment: not given
The settings on record: compared with L-glutamine; cited from earlier work.
In the case of `C[C@H](N)C(=O)N[C@@H](CCC(N)=O)C(=O)O` [L-alanyl-L-glutamine] (H-Ala-Gln-OH), the stability result is reported as “higher” and the water-solubility result is reported as “higher”.

Values taken from patent US7037673B2, “Dipeptide production method, L-amino acid amide hydrolase used therein, and production method of L-amino acid amide hydrolase” (Ajinomoto Co., Inc., priority 2001, dated 2006).
